The source of these data is patent EP2545917B1, “NOVEL EP4 AGONIST” (Kaken Pharmaceutical Co., Ltd., priority 2010, dated 2011).

The structures appear in SMILES notation. pEC50, pIC50, pKi: −log10 of the molar value.

The target in one data set is T1, Human EP1 (Homo sapiens, UniProt P34995).
T1 construct: expressed in transfected cells; host or cells: COS-7
T1 sequence (P34995 1-402): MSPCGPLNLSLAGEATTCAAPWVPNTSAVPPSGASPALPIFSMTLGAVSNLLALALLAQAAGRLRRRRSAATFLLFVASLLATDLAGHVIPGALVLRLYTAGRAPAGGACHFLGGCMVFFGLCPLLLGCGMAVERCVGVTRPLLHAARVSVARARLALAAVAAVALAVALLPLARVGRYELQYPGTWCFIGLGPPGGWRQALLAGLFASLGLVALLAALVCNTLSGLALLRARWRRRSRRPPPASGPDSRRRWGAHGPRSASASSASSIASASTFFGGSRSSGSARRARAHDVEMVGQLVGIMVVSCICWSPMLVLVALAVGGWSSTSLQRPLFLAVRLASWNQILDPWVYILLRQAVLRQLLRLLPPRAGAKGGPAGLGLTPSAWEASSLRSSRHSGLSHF
Description: Receptor affinity, tritium-labeled PGE2 binding to membranes of transfected COS-7 cells. The method, then:
PG receptor affinity of compound F and compound J of the present invention was evaluated. Compound F used was one synthesized in Example 9, and compound J was prepared by separating and purifying the compound synthesized in Example 14 with a column (the same preparations were used in the following Examples). COS-7 cells were transfected with the genes of mouse EP4, human EP1-4 or human IP to overexpress the receptor and then the cell membranes were collected. As a labeled ligand, tritium-labeled PGE2 was used for EPs; tritium-labeled iloprost, for IP. The dissociation constant Kd value was obtained and inhibition constant Ki value of each test compound was determined in a conventional method. As a reference control, PGE2 was used for EPs; beraprost sodium (BPS), for IP.

Another data set concerns the target T2, Human EP4 (Homo sapiens, UniProt P35408).
T2 construct: expressed in transfected cells; host or cells: COS-7
Description: EP4 agonist activity, CRE-LUC reporter gene in transfected COS-7 cells. The data set is classed as cell-based. The method, then: In brief, human EP4 gene and CRE-LUC reporter gene were transfected into COS-7 cells. The cells were treated with a test compound one day later, and incubated for 3 hr. The cells were washed, a luminescence substrate was added, and the luminescence intensity was measured for the agonist activity.

Data set [1] deals with blood pressure and heart rate. Description: Effect on blood pressure and heart rate in mice. Type of data set: in vivo, ICR mice. The conditions noted are these: intravenous 0.01 mg/5 mL/kg, isoflurane anesthesia. The method, then:
Male ICR mice (5 weeks old, Japan SLC) were purchased, acclimated for 6 days and used for the test. The animals were treated and measured under isoflurane inhalation anesthesia (anesthesia introduced at 2.5%, maintained at 1.8-2.1%), while body temperature was kept at 37°C with a Heat Controller (ATC-402, Unique Medical Co., Ltd.). A catheter for administration of test compounds was inserted into the left femoral vein, and another catheter was inserted into the right femoral artery and connected to a pressure transducer to record each parameter of hemodynamics.
Compound F, the carboxylate form of compound F and BPS were intravenously administered at a dose of 0.01 mg/5 mL/kg, and the effect on the mean blood pressure and heart rate was evaluated with computer software for the analysis of hemodynamics (Fluclet, Dainippon Sumitomo Pharma Co., Ltd.). To the control group was intravenously administered a solvent (1.2% ethanol solution) at 5 mL/kg in the same manner. The results are expressed as a ratio of change in each parameter before and after the drug administration. Three to 6 animals were used for each group, and the results were expressed as average ± standard deviation.

The test system of a further data set is IL-2. Description: Suppressive effect on cytokine production, CD4 positive T cells stimulated with anti-CD3 and anti-CD28 antibody, ELISA. The conditions noted are these: human CD4 positive T cells, anti-CD3/anti-CD28, 24 hr; geometric mean of three volunteers. Type of data set: cell-based. The method, then: (§1) Blood was collected from 3 healthy volunteers, and CD4 positive T cells were prepared. […] In both cases, the test compound was added 30 min before stimulation.
Background: An ELISA detects its analyte on a solid surface through an enzyme-linked reagent.

In a further data set the test system is TNF-α. The data set is described as above. To be noted: human CD4 positive T cells, anti-CD3/anti-CD28, 24 hr; geometric mean of three volunteers. The data set is classed as cell-based. The method, then: as §1
Data set [2] relates to dextran sodium sulfate-induced colitis. The experiment in a line: Prophylactic effect on dextran sodium sulfate-induced colitis in rats. Type of data set: in vivo. The conditions noted are these: SD rats, 5.5 w/v% DSS, oral 1 mg/kg and 3 mg/kg once a day. The method, then:
Prophylactic effect of compound F on colitis was also studied in rats. Male SD rats, 7 weeks old, body weight around 210 g - 240 g (Charles River) were purchased, acclimated for 1 week and used for the study. Except the normal group, the rats were allowed to freely drink a DSS (MP Biochemicals, M.W. 36,000-50,000, Lot No. 4556J) solution prepared to 5.5 w/v% for 8 days to induce colitis. Compound F at doses of 0.3, 1 and 3 mg/kg was orally administered once a day, daily, from one day before the start day of DSS drinking to one day before autopsy (day 7). To the control group was orally administered a solvent (1 vol% ethanol solution) at 5 mL/kg.
On day 8 from the start of DSS drinking, 1.25 w/v% Evans blue solution was administered at 0.2 mL/100 g from the tail vein. After 30 min, the rats were subjected to laparotomy under ether anesthesia and exsanguinated to death. Thereafter, the large intestine was dissected from just below the cecum to the anus, and the length was measured with a scale. […] The next day, the dry weight was measured, formamide (2 mL) was added, the dye was extracted at 50°C overnight, and the level thereof was measured at 620 nm. A standard curve was prepared using an Evans blue standard solution, and the amount (mg) of Evans blue in 1 g of the colonic tissue was calculated to estimate degree of colonic tissue injury. […]

In data set [3] the test system is indomethacin-induced small intestinal injury. Description: Indomethacin-induced small intestinal injury model in rats. The data set is classed as in vivo, SD rats. The method, then:
Male SD rats, 7 weeks old (Charles River) were purchased, acclimated for 1 week and used for the study. The rats were grouped based on the body weight and subcutaneously ) administered with indomethacin (SIGMA, Lot No. 19F0018) at 15 mg/5 mL/kg to all groups to induce small intestinal injury. Compound F at doses of 0.01, 0.1 and 1 mg/kg was orally administered at a volume of 5 mL/kg 30 min before and 6 hr after the subcutaneous administration of indomethacin. To the control group was orally administered a solvent (1 vol% ethanol solution) at 5 mL/kg in the same manner. Eight animals were used for each group.
The rats were intravenously administered with 2 mL of 10 mg/mL Evans blue solution under ether anesthesia 23.5 hr after the indomethacin administration. After 30 min, the rats were bled to death from the abdominal aorta and caudal vena cava under ether anesthesia and the small intestine was isolated. The isolated small intestine was filled with an adequate amount (about 35 mL) of 2 vol% neutral formalin solution, and fixed for about 15 min. Thereafter, the total small intestine was incised along the mesenteric attachment site, and extended on a vinyl chloride board. The length and width of each ulcer were measured under a stereomicroscope, the area was calculated, and the sum thereof was taken as the total ulcer area.

T2 sequence (P35408 whole entry): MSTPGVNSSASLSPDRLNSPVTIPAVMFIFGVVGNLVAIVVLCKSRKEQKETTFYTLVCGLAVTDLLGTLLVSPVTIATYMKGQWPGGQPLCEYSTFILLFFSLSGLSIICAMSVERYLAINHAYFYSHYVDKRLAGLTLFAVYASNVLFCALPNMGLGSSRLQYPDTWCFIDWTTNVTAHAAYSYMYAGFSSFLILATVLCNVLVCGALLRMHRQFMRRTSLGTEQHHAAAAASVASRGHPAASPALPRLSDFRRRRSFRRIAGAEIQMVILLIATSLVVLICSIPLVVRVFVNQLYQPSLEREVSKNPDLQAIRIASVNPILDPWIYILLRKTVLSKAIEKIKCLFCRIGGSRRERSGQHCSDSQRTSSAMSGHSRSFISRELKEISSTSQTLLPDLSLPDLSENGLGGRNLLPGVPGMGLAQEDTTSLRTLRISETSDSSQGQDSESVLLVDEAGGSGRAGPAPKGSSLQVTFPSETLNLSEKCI

Broadly, the pKi is the Ki on a negative log10 scale, so that one unit is a factor of ten. Low readings indicate a large Ki, high ones a small Ki. Broadly, the pEC50 is the negative decadic logarithm of the EC50, by convention in mol/L. A low value points to a large EC50. Broadly, the pIC50 is −log10 of the IC50, conventionally taken in molar units. `Cc1cccc([C@@H](C)[C@H](O)/C=C/[C@@H]2[C@@H]3[C@H](C[C@H]2O)O/C(=C\CCCc2nnn[nH]2)C3(F)F)c1` [Compound F, 4-[(Z)-(1S,5R,6R,7R)-6-[(1E,3R,4R)-3-hydroxy-4-(m-tolyl)-1-pentenyl]-7-hydroxy-2-oxa-4,4-difluoro-bicyclo[3.3.0]octan-3-ylidene]-1-(tetrazol-5-yl)butane] had a pKi on Human EP1 of 6.21. At Human EP4, the pEC50 was 8.48. Moreover, the “effect on heart rate” value in data set [1] is on record as “little effect on the heart rate”. Besides, the “maximum decrease ratio of mean blood pressure” value in data set [1] turned out to be 16.2%. Also, the pIC50 was 9.29 with IL-2 and 8.90 with TNF-α. The “effect on stool score, colonic tissue injury and shortening of the large intestine” value in data set [2] is reported as “a suppressive tendency or significant suppressive effect on these events”. In addition, the “effect on total ulcer area in the small intestine” value is reported as “completely reduced the area” in data set [3] (oral 1 mg/kg 30 min before and 6 hr after indomethacin); “significantly reduced the ulcer area in a dose-dependent manner from a dose of 0.1 mg/kg administration” in data set [3] (oral 0.01, 0.1 and 1 mg/kg 30 min before and 6 hr after indomethacin).
